Experimental data taken from ChEMBL document CHEMBL3885861, “Open TG-GATES”.

Organism: Rattus norvegicus
Assay: Open TG-GATES - Regimen: Single
Assay type: toxicity, organism-based, Sprague-Dawley
Parameters: regimen Single, gender Male, age 6 weeks
Settings: in vivo, po, 25 mg/kg, route gavage, dose level Low; for KIDNEY_L / KIDNEY_R / KIDNEY_TOTAL: tissue Kidney; for LIVER: tissue Liver; for ALP / ALT / AST / CRE / Ca / Cl / DBIL / GLC / IP / K / LDH / Na / PL / RALB / TBIL / TC / TG / TP / gamma-GTP: tissue Plasma

## O=C1CN(/N=C/c2ccc(-c3ccc([N+](=O)[O-])cc3)o2)C(O)=N1 [DANTROLENE]
3 h, tissue Blood
  Bas: 0%
  Eos: 1%
  Fbg: 205.2 mg/dL
  Hb: 13.6 g/dL
  Lym: 74.4%
  MCH: 22.5 pg
  MCHC: 34.1%
  MCV: 65.9 fL
  Mono: 8.4%
  Neu: 16.2%
  RBC: 604.8 x10_4/ul
  Ret: 10.4%
  WBC: 99.1 x10_2/uL
3 h
  KIDNEY_L: 1 g
  KIDNEY_R: 1 g
  KIDNEY_TOTAL: 1.9 g
  LIVER: 9.5 g
  ALP: 1009.8 IU/L
  ALT: 38.4 IU/L
  AST: 69.2 IU/L
  CRE: 0.6 mg/dL
  Ca: 10.5 mg/dL
  Cl: 101.8 meq/L
  DBIL: 0.03 mg/dL
  GLC: 213 mg/dL
  IP: 10.8 mg/dL
  K: 4.8 meq/L
  LDH: 97.8 IU/L
  Na: 139.2 meq/L
  PL: 141.6 mg/dL
  RALB: 3.8 g/dL
  TBIL: 0.4 mg/dL
  TC: 83.4 mg/dL
  TG: 39.4 mg/dL
  TP: 5.6 g/dL
  gamma-GTP: 2.6 IU/L
6 h
  TERMINAL_BW: 191.8 g
  KIDNEY_L: 0.9 g
  KIDNEY_R: 0.9 g
  KIDNEY_TOTAL: 1.8 g
  LIVER: 8.7 g
  ALP: 698.6 IU/L
  ALT: 30.4 IU/L
  AST: 60.4 IU/L
  CRE: 0.5 mg/dL
  Ca: 10.3 mg/dL
  Cl: 103 meq/L
  DBIL: 0.07 mg/dL
  GLC: 188.2 mg/dL
  IP: 9.7 mg/dL
  K: 4.7 meq/L
  LDH: 100.8 IU/L
  Na: 139.2 meq/L
  PL: 141.6 mg/dL
  RALB: 3.7 g/dL
  TBIL: 0.4 mg/dL
  TC: 78.8 mg/dL
  TG: 44 mg/dL
  TP: 5.3 g/dL
  gamma-GTP: 2 IU/L
6 h, tissue Blood
  APTT: 16.9 s
  Bas: 0%
  Eos: 1.2%
  Fbg: 210.4 mg/dL
  Hb: 13.8 g/dL
  Lym: 77%
  MCH: 21.9 pg
  MCHC: 34.3%
  MCV: 64.1 fL
  Mono: 8%
  Neu: 14%
  RBC: 632.4 x10_4/ul
  Ret: 12.6%
  WBC: 89.5 x10_2/uL
9 h
  TERMINAL_BW: 189.9 g
